Where two headings read alike, the source gives them in different places.
Legend:
hHINT1 [1] = biological target: T1, hHINT1 (Homo sapiens, UniProt P49773); test: Phosphoramidase fluorescence assay; assay type: biochemical; settings: for Kcat / Km: Table 5
Protocol: (§1) The fluorescence of tryptophan (ex, 280 nm, em 360 nm) can be quenched when covalently attached to a nucleoside monophosphate, and nucleoside phosphoramidates of D- and L-tryptophan and tryptamine are excellent fluorescent substrates for hHINT1. Typically, after measurement of initial substrate fluorescence, hHINT1 was added to the reaction solution (HEPES buffer, pH 7.2, 25° C.) and the change in fluorescence over 2 min was determined by converting the slope into μM of substrate hydrolyzed per μg of enzyme per min with a standard curve. […] Based on the generation of chimeric polypeptides between the hHINTI and the hinT of E. coli, the preference for D enantiomers by the human HINT1 polypeptide is likely conferred by the C-terminus amino acids (e.g., the C-terminus 5, 6, 5 7, 8, 9, 10, or 11 amino acids) of the hHINT1 enzyme. […] In addition, both D-tryptophan phosphoramidates of cytosine and uridine were substrates. Initial rates were determined 10 during the first 10-20% of the reaction for variable substrate concentrations. The Michaelis-Menten constants, kcat and Km, for selected nucleoside phosphosphoramidates have been determined. (Table 4). As observed in the initial screening assay, for phosphoramidates containing L-tryptophan, hHINT1 has a 7-fold greater preference for AMP phosphoramidates of L-tryptophan than GMP.

E. coli hinT [2] = biological target: T2, E. coli hinT (Escherichia coli, UniProt P0ACE7); test: Phosphoramidase fluorescence assay; assay type: biochemical; settings: Table 5
T2 sequence (P0ACE7 1-119): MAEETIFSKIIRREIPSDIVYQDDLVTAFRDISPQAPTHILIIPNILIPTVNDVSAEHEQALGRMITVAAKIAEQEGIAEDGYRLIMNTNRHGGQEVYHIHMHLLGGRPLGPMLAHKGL
Source text: as §1, with “hHINT1.” for “hHINT1. Typically, after measurement of initial substrate fluorescence, hHINT1 was added to the reaction solution (HEPES buffer, pH 7.2, 25° C.) and the change in fluorescence over 2 min was determined by converting the slope into μM of substrate hydrolyzed per μg of enzyme per min with a standard curve.”, “(Table 4).” left out
In addition, the Michaelis-Menten constants, kcat and Km, for selected nucleoside phosphosphoramidates were determined for both human Hint1 and E. coli hinT (Table 5).

hHINT1 [3] = biological target: T1, hHINT1; settings: literature (J. Biol. Chem. 2004, 279, 18711; 2002, 277, 10852); cited from earlier work
Rabbit HINT1 = biological target: T3, Rabbit HINT1 (Oryctolagus cuniculus, UniProt P80912); test: 31P NMR phosphoramidase assay of purified protein; assay type: biochemical; settings: for Specific activity: 10 mM substrate, pH 7.2, 22° C.
T3 construct: made in house; host or cells: E. coli hinT deletion mutant
Protocol: (§2) Phosphoramidase activity in cell lysates was measured by the ^1H-decoupling mode of phosphorus-31 NMR spectroscopy (Varian VAC-300 spectrometer), which can clearly distinguish the substrate, AMP-NH2, and the product, adenosine 5′-monophosphate (AMP). NMR spectrometry is suitable for quantitation by integration of the area under the peak, which is proportional to the amount of nuclei present. The relative ratio of peak areas can be used to calculate the amount of turnover corrected based on a standard curve.
(§3) Cell lysates from E. coli Tuner(DE3)pLacI cells (Novagen) were obtained by treatment with lysozyme (1 mg/ml) and the DNA was precipitated by protamine sulfate followed by centrifugation to remove cell debris. The supernatant was dialyzed extensively against Buffer A (20 mM Tris (pH 7.0); 1 mM EDTA; 1 mM DTT, 0.01 mM PMSF) to remove cellular phosphates and nucleotides. Phosphate free cell lysates (0.75 mg total protein) were incubated with 5 mM AMP-NH2 in 0.5 ml reaction buffer (0.5 mM MgCl2, 20 mM HEPES (pH 7.2)) at 37° C. for intervals of 15 min, 30 min, and 12 h. The reactions were terminated by snap freezing in a dry ice/acetone slush bath and lyophilized for 5 h. The samples were then dissolved in NMR buffer (600 μL, 50 mM EDTA, 20 mM HEPES (pH 7.2), and 1 mM TMP (trimethylphosphate, internal standard)) and the insoluble portion was spun down by centrifugation at 12,500×g for 5 min. A ^31P NMR spectrum was then collected for the supernatant. For the low pH control experiment, 10 mM AMP-NH2 in reaction buffer (500 μL, pH 2.0) was incubated at 37° C. for 12 h and the 31p signal was detected under the same conditions.
(§4) Five recombinant purified proteins were tested with three commercial available compounds (Sigma): AMP-NH2, adenosine 5′-monophosphomorpholidate (AMP-Mor), and guanosine 5′-monophosphomorpholidate (GMP-Mor) (FIG. 1). The compounds (10 mM) were incubated with proteins (2.5-10 μg) in the reaction buffer (500 μL, 0.5 mM MgCl2, 20 mM HEPES (pH 7.2)) at 22° C. for intervals of 36 and 66 min. The reactions were quenched by adding 5 M NaOH (20 μL), followed by snap freezing in a dry ice/acetone slush bath, and lyophilized. The sample preparation for ^31P NMR measurement was as described above for the cell-lysate experiment except that the pH was adjusted by the addition of 12 μL 6 M HCl before NMR spectra were collected.

Human Hint1-DHFR = biological target: T4, Human Hint1-DHFR (UniProt P0ABQ4+P49773); test: 31P NMR phosphoramidase assay of purified protein; assay type: biochemical; settings: 10 mM substrate, pH 7.2, 22° C.
T4 construct: made in house; host or cells: E. coli (following the procedure for the hinT plasmid)
Protocol: as §2, §3, §4

hHINT1 [4] = biological target: T1, hHINT1; test: 31P NMR phosphoramidase assay of purified protein; assay type: biochemical; settings: for Specific activity: 10 mM substrate, pH 7.2, 22° C.
Protocol: as §2, §3, §4

E. coli hinT [5] = biological target: T2, E. coli hinT; test: 31P NMR phosphoramidase assay of purified protein; assay type: biochemical; settings: for Specific activity: 10 mM substrate, pH 7.2, 22° C.
Protocol: as §2, §3, §4

E. coli hinT-DHFR = biological target: T5, E. coli hinT-DHFR (Escherichia coli, UniProt P0ABQ4+P0ACE7); test: 31P NMR phosphoramidase assay of purified protein; assay type: biochemical; settings: 10 mM substrate, pH 7.2, 22° C.
T5 construct: made in house; host or cells: E. coli Tuner(DE3)pLacI
Protocol: as §2, §3, §4

hHINT1 [6] = biological target: T1, hHINT1; test: Catalytic activity (velocity) of cloned, purified phosphoramidase with AMPNH2; assay type: biochemical
Source text: The enzyme responsible for hydrolysis of AZT amino acid phosphoramidates was cloned and characterized. After construction of a cDNA library from peripheral blood mononuclear cells (PBMCs) in T7Select10-3b phage, the phage display technique was employed to isolate the enzyme by affinity chromatography. After three rounds of phage selection and ampilification with an affinity column constructed from the L-tryptophan carbamate, DNA from ten selected plaques was amplified by PCR and sequenced. […] Hint1 is a member of the HIT protein superfamily, which consists of a recently identified adenosine 5′-monophosphoramide hydrolases from rabbit and yeast.
Velocity of the enzymes was determined at pH 7.2 at room temperature in the presence of 10 mM AMPNH2.

[7] = FIG. 5 substrate preference screen

Compound | Kcat (hHINT1 [1]) | Km (hHINT1 [1]) | Kcat (E. coli hinT [2]) | Km (E. coli hinT [2]) | also measured
Nc1ncnc2c1ncn2[C@@H]1O[C@H](COP(=O)(O)NCCc2c[nH]c3ccccc23)[C@@H](O)[C@H]1O [AMP-Tryptamine] | 2.05 ± 0.27 s⁻¹ | 0.25 ± 0.05 µM | 4.07 ± 0.11 s⁻¹ | 5.03 ± 0.21 µM | 
Nc1ncnc2c1ncn2[C@@H]1O[C@H](COP(=O)(O)NCCCC[C@H](N)C(=O)O)[C@@H](O)[C@H]1O [AMP-lysine] |  |  |  |  | Kcat (hHINT1 [3]): 0.234 ± 0.011 s⁻¹; Km (hHINT1 [3]): 0.472 ± 0.057 µM
Cc1cn([C@H]2C[C@H](O)[C@@H](COP(=O)(O)NCCc3c[nH]c4ccccc34)O2)c(=O)[nH]c1=O [TMP-Tryptamine] | 0.044 ± 0.01 s⁻¹ | 26.1 ± 2.78 µM | 0.014 ± 0.001 s⁻¹ | 35.9 ± 2.27 µM | 
COC(=O)[C@@H](Cc1c[nH]c2ccccc12)NP(=O)(O)OC[C@H]1O[C@@H](n2cnc3c(=O)[nH]c(N)nc32)[C@H](O)[C@@H]1O [GMP-D-TrpCOOMe] | 0.29 ± 0.02 s⁻¹ | 3.27 ± 0.58 µM | 1.75 ± 0.05 s⁻¹ | 21.3 ± 1.21 µM | 
O=c1[nH]cnc2c1ncn2[C@@H]1O[C@H](COP(=O)(O)NCCc2c[nH]c3ccccc23)[C@@H](O)[C@H]1O [IMP-Tryptamine] | 2.53 ± 0.09 s⁻¹ | 0.71 ± 0.03 µM | 3.89 ± 0.18 s⁻¹ | 13.7 ± 0.67 µM | 
Nc1nc2c(ncn2[C@@H]2O[C@H](COP(=O)(O)N3CCOCC3)[C@@H](O)[C@H]2O)c(=O)[nH]1 [GMP-Mor, guanosine 5′-monophosphomorpholidate] |  |  |  |  | Preference for GMP-Mor over AMP-Mor (Rabbit HINT1): 2 fold; Specific activity (Rabbit HINT1): 48.6 ± 0.4 nmol nmol^−1 min^−1; Specific activity (Human Hint1-DHFR): 87.2 ± 11.8 nmol nmol^−1 min^−1; Preference for GMP-Mor over AMP-Mor (hHINT1 [4]): 2 fold; Specific activity (hHINT1 [4]): 78.7 ± 1.3 nmol nmol^−1 min^−1; Preference for GMP-Mor over AMP-Mor (E. coli hinT [5]): 2 fold; Specific activity (E. coli hinT [5]): 669 ± 1 nmol nmol^−1 min^−1; Specific activity (E. coli hinT-DHFR): 675 ± 17 nmol nmol^−1 min^−1
Nc1nc2c(ncn2C2OC(COP(=O)(O)NC(Cc3c[nH]c4ccccc34)C(=O)O)C(O)C2O)c(=O)[nH]1 [GMP D-tryptophan phosphoramidate, guanosine monophosphate (GMP) D-tryptophan phosphoramidate] |  |  |  |  | Activity relative to 7-benzyl guanosine monophosphate (7-Bn GMP) (hHINT1 [1]; [7]): approximately 7 fold; Activity relative to GMP L-tryptophan (hHINT1 [1]; [7]): nearly identical
Nc1ncnc2c1ncn2[C@@H]1O[C@H](COP(=O)(O)NCCc2c[nH]c3ccccc23)[C@@H](O)[C@@H]1O [Ara-AMP-Tryptamine] | 0.85 ± 0.1 s⁻¹ | 0.79 ± 0.11 µM | 0.95 ± 0.17 s⁻¹ | 34.6 ± 5.64 µM | 
Nc1nc2c(ncn2[C@@H]2O[C@H](COP(=O)(O)NCCc3c[nH]c4ccccc34)[C@@H](O)[C@H]2O)c(=O)[nH]1 [GMP-Tryptamine] | 2.09 ± 0.16 s⁻¹ | 0.243 ± 0.03 µM | 3.45 ± 0.3 s⁻¹ | 5.34 ± 0.69 µM | 
Nc1ncnc2c1ncn2[C@@H]1O[C@H](COP(=O)(O)N2CCOCC2)[C@@H](O)[C@H]1O [AMP-Mor, adenosine 5′-monophosphomorpholidate] |  |  |  |  | Specific activity (Rabbit HINT1): 26.6 ± 0.6 nmol nmol^−1 min^−1; Specific activity (Human Hint1-DHFR): 43.4 ± 4.0 nmol nmol^−1 min^−1; Specific activity (hHINT1 [4]): 45.0 ± 0 nmol nmol^−1 min^−1; Specific activity (E. coli hinT [5]): 360 ± 1 nmol nmol^−1 min^−1; Specific activity (E. coli hinT-DHFR): 411 ± 4 nmol nmol^−1 min^−1
O=c1ccn([C@@H]2O[C@H](COP(=O)(O)NCCc3c[nH]c4ccccc34)[C@@H](O)[C@H]2O)c(=O)[nH]1 [UMP-Tryptamine] | 1.85 ± 0.29 s⁻¹ | 1.42 ± 0.25 µM | 1.63 ± 0.22 s⁻¹ | 25.1 ± 3.56 µM | 
AZT tryptophan phosphoramidate |  |  |  |  | Hydrolysis by over-expressed, purified human Hint1 (hHINT1 [6]): to a lesser extent
